Reference: patent US20150225377A1, “VEGFR3 INHIBITORS” (CANCER THERAPEUTICS CRC PTY LIMITED, priority 2012, published 2015)

Legend:
VEGFR3 = target: T1, VEGFR3 (Homo sapiens, UniProt P35916); experiment: VEGFR3 Phospho ELISA assay in HMVEC-dLyAD cells, VEGFC stimulated; format: cell-based; conditions: 1 hour compound, 250 ng/mL VEGFC 10 minutes
T1 construct: host or cells: HMVEC-dLyAD
Method: Adult human dermal lymphatic microvascular endothelial cells (HMVEC-dLyAD) (Cat#CC-2810, Lonza) were seeded into clear-bottom, TC treated 12 well plates (Cat #665180, Greiner Bio-One) in EGM-2MV (Cat#CC-3202, Lonza) at 180,000 cells/well (volume 1 mL), and the plates incubated at 37° C. and 5% CO2 for 6 hours. The media was replaced with EBM-2 (Cat #CC-3156, Lonza)+0.1% BSA (Cat#A8412, Sigma) and cells incubated for a further period (overnight at 37° C. and 5% CO2).
96 well Maxisorp immuno plates (Cat #439454, Nunc) were coated with 100 μL of Total VEGFR3 capture antibody (Part #841888, Human Total VEGFR3/FLT4 ELISA Kit, Cat #DYC3491, R&D Systems), or Phospho VEGFR3 Capture antibody (Part #841885, Human Phospho VEGFR3/FLT4 ELISA Kit, Cat#DYC2724, R&D Systems). The plates were covered and incubated at room temperature overnight.
The coating antibody was flicked out and the plates washed three times with Wash Buffer (Phosphate buffered saline (137 mM NaCl, […], […], […], pH 7.2-7.4), 0.05% Tween 20). 300 μL of blocking buffer (5% v/v Tween 20, 5% w/v sucrose in PBS) was then added to wells and plate incubated for 2 hours at room temperature. Blocking solution is flicked out and plates washed three times and tapped dry.
Compound dilution series were prepared in EBM-2 (Cat #CC-3156, Lonza)+0.1% BSA (Cat#A8412, Sigma) with constant 0.1% DMSO concentration. 439 μL of sample or vehicle control was added to the cell monolayers. Cells are treated for 1 hour at 37° C. and 5% CO2. 250 ng/mL Recombinant human VEGFC (Cat #2179-VC, R & D Systems) added to wells and plates incubated for an additional 10 minutes at 37° C. and 5% CO2.
The media and compounds were removed and the cell monolayer washed once in Dulbecco's Phosphate Buffered Saline (Cat #21600-044, Invitrogen). 130 μL of Lysis buffer added to wells and cell lysate harvested and transferred to tubes and stored on ice. Complete lysis buffer was prepared by adding 10 μL Protease Inhibitor Cocktail (Cat #P8340, Sigma-Aldrich), 10 μL PMSF (Phenylmethanesulfonyl fluoride, Cat #P7626, Sigma-Aldrich, prepared as 500 mM DMSO stock) per 1 mL of Phosphosafe™ Extraction Reagent (Cat #71296, Merck).
The harvested samples were then diluted 1:2 in IC Diluent #18 (5% Tween 20/PBS) and 100 μL transferred to the Total and Phospho VEGFR3 coated, blocked and washed 96 well plates and incubated for 2 hours at room temperature. The plates were then washed three times in wash buffer as described above and tapped dry.
For detection of Total VEGFR3100 μL of Detection antibody (Total VEGFR3 Detection Antibody Part#841888 in Total VEGFR3 kit) diluted in IC Diluent #1 (1% w/v BSA (Cat #A7906, Sigma-Aldrich)/PBS) was added to wells and the plate incubated for 2 hours at room temperature. The plate was then washed three times in wash buffer and tapped dry. 100 μL of streptavidin-HPR diluted in IC diluent #1 Streptavidin-HRP, Part #890803 in Total VEGFR3 kit) was added to wells and incubated at room temperature for 20 minutes followed by washing as described above 100 μL Substrate solution (3,3′,5,5′-Tetramethylbenzidine (TMB) Liquid Substrate System for ELISA, Cat #T0440, Sigma-Aldrich) was added and the plate incubated for 20 minutes in the dark at room temperature followed by the addition of 50 μL stop solution (2 M H2SO4).
Total VEGFR3 levels were quantified using a Multiskan Ascent plate reader and Ascent software fitted with 450 nm filter.
For detection of Phospho VEGFR3, 100 μL of Detection antibody (Anti-Phospho-Tyrosine-HRP Detection Antibody, Part #841403 in Phospho VEGFR3 kit) was diluted in IC Diluent #1 (1% w/v BSA/PBS), added to the wells and the plate incubated for 2 hours at room temperature. The plate was then washed three times in wash buffer as described above and tapped dry. […]

[1] = target: T2, VEGFR3 cytoplasmic domain (Homo sapiens, UniProt P35916); experiment: VEGFR3 biochemical assay (AlphaScreen); conditions: GST-VEGFR3 cytoplasmic domain, 500 μM ATP (modified form: His-fusion, 1 μM ATP)
T2 construct: VEGFR3 cytoplasmic domain (amino acids 798-1298) was purchased as N-terminal GST-fusion protein; GST (N); purchased
Method: Compounds of the invention may be tested for in vitro activity in the following assay: A biotin labelled peptide is used as substrate (amino acid sequence: Biotin-[…]NH2). VEGFR3 cytoplasmic domain (amino acids 798-1298) was purchased as N-terminal GST-fusion protein (“the enzyme”). The 15 μL assay reactions are run in Greiner brand white 384-well low volume plates. All reactions contained 10 mM HEPES pH 7.4, 10 mM MgCl2, 0.01% (v/v) Tween-20, 50 μM Na3VO4, 0.01% (w/v) albumin from chicken egg white, 1 mM Dithiothreitol, 111 nM peptide substrate, 500 μM ATP, and 3.8 ng/reaction enzyme, with the enzyme being omitted from negative control reactions. Compounds were added in a volume of […] from dilution series prepared in DMSO, positive and negative control reactions receiving the same volume DMSO without compound. The plates were sealed with adhesive seals and incubated for 90 minutes at 30 degree Celsius. The reactions were stopped with the detection reagents added at the same time as follows: Product formation was quantified as amplified luminescence between PerkinElmer AlphaScreen™ beads, using Streptavidin-coated donor and anti-phosphotyrosine (P-Tyr-100) acceptor beads. To each reaction, 5 μL containing 10 mM HEPES pH 7.4, 25 mM NaCl, 100 mM EDTA, 0.01% (v/v) Tween-20, and 6.25 μg/mL of each bead type were added. Plates were incubated for 6 hours before being read on a PerkinElmer EnVision™ plate reader in HTS Alphascreen™ mode. IC50 values were obtained by calculating percent inhibition (% I) for each reaction relative to controls on the same plate (% I=(I-CN)/(CP-CN) where CN/CP are the averages of the negative/positive reactions, respectively), then fitting the % I data vs. compound concentration [I] to % I=(A+((B−A)/(1+((C/[I])̂D)))) where A is the lower asymptote, B is the upper asymptote, C is the IC50 value, and D is the slope factor.
The above assay was also run in a modified form in some cases (indicated below with *). In these cases, VEGFR3 cytoplasmic domain (amino acids 818-1177, lacking 949-1002 of UniProt accession number P35916) was expressed and purified as N-terminal Hexa-His-fusion protein (“the enzyme”), rather than using the N-terminal GST-fusion protein. The assay conditions were the same as above but with 1 μM ATP and 8 ng/reaction of the enzyme.

P397Y-FAK = target: T3, P397Y-FAK (Homo sapiens, UniProt Q05397); experiment: P397Y-FAK inhibition MSD platform cellular biomarker assay; format: cell-based; conditions: MDA-231-LNA cells, 1 hour compound
T3 construct: endogenous in cells; host or cells: MDA-231-LNA
Method: 96-well plates (cat#MA6000, Meso Scale Discovery) are coated with 30 μL/well of mouse monoclonal FAK antibody [63D5] (cat#ab72140, Abcam) pre-diluted in PBS to a concentration of 1 mg/mL. The plates are sealed with adhesive film and incubated for 16 hours at 4° C. The antibody is then flicked out of the plates and 150 μL of 3% [w/v] Blocker A (cat#R93AA-1, Meso Scale Discovery) is added. The plates are resealed with adhesive film and incubated at room temperature on a shaker set at medium speed for 2 hours. The plates are then washed three times with a solution containing 50 mM Tris-HCl pH 7.5, 0.15 M NaCl and 0.02% Tween-20, before cell lysate addition described below.
Cells are split 1:2 into T150 cell culture flasks 2 days prior to compound treatment. On the day prior to compound treatment, 200 μL media containing 20,000 cells is seeded into all wells of white, clear-bottom, TC treated, pclear, 96-well microtitre plates (cat#655098, Greiner Bio-One), and the plates are incubated at 37° C. and 5% CO2 for […]. 1 pUwell of compound is then added from dilution series prepared in DMSO. Negative control wells receive the same volume of DMSO without compounds, and positive control wells receive 2 μM of a control compound in the same volume of DMSO. Cells are treated for 1 hour at 37° C. and 5% CO2. The media/compounds are then flicked off and 55 pUwell of ice-cold complete lysis buffer is added. Complete lysis buffer is prepared by adding 1 tablet PhosSTOP complete phosphatase inhibitor (cat#04906837001, Roche) and 1 tablet Complete, Mini, EDTA-free, protease inhibitor (cat#04693159001, Roche) per 10 mL of incomplete lysis buffer (150 mM NaCl, 20 mM Tris-HCl pH 7.5, 1 mM EDTA, 1 mM EGTA, 1% Triton-X 100). Plates are incubated on ice for 30 minutes, with 30 seconds high speed plate shaking every 5 minutes. 40 μL/well of cell lysate is transferred to the coated, blocked and washed 96-well microtitre plates described above. The 96-well plates are sealed with adhesive film and incubated for 16 hours at 4° C. The plates are then washed three times with a solution containing 50 mM Tris-HCl pH 7.5, 0.15 M NaCl and 0.02% Tween-20 and tapped dry. 25 μL/well of detection solution (1% [w/v] Blocker A (cat#R93AA-1, Meso Scale Discovery) in 50 mM Tris-HCl pH 7.5, 0.15 M NaCl and 0.02% Tween-20, with 1:600 rabbit polyclonal FAK phospho Y397 antibody (cat#ab39967, Abcam), 1:1000 anti-rabbit sulfo-tag antibody (cat#R32AB-1 Meso Scale Discovery) and 1:40 reconstituted Blocker D-M (cat#D609-0100, Rockland Immunochemicals for Research)) is added, and the plates resealed with adhesive film and incubated for 1 hour at room temperature on a plate shaker set to medium speed. Plates are then washed three times with a solution containing 50 mM Tris-HCl pH 7.5, 0.15 M NaCl and 0.02% Tween-20 and tapped dry. 150 μL/well of Read Buffer T+Surfactant (cat#R92TC-1, Meso Scale Discovery) is then added, and pFAK-397 levels quantified using a Meso Scale Discovery SECTOR Imager 6000 instrument.

T3 sequence (Q05397 2-1052 limits assumed, stated change not applied): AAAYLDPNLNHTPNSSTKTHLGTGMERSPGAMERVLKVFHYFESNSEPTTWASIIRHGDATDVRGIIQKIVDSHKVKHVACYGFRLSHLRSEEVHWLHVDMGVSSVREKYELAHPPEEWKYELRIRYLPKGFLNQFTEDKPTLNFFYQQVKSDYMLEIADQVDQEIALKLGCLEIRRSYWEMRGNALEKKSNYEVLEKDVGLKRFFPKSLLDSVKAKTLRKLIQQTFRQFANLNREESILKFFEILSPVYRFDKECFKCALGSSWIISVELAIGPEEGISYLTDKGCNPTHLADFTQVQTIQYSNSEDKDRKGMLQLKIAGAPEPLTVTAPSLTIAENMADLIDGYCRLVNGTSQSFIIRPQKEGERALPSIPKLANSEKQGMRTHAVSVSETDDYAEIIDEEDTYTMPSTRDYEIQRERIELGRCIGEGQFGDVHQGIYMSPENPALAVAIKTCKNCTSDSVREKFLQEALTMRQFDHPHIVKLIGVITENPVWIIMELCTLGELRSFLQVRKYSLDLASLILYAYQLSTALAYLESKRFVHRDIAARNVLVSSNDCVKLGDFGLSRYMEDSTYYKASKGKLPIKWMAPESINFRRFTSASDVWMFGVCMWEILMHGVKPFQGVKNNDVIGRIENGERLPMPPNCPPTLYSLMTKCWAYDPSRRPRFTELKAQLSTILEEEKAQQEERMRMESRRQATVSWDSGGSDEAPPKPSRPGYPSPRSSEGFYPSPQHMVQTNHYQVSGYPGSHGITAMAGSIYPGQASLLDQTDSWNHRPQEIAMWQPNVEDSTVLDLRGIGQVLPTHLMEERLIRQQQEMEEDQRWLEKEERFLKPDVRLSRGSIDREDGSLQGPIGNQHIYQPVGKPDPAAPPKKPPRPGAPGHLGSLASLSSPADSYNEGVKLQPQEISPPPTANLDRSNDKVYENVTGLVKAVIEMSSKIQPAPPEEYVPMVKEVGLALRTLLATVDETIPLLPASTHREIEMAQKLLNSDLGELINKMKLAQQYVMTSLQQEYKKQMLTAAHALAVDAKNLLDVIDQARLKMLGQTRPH
T2 sequence (P35916 798-1298 isoform P35916-1): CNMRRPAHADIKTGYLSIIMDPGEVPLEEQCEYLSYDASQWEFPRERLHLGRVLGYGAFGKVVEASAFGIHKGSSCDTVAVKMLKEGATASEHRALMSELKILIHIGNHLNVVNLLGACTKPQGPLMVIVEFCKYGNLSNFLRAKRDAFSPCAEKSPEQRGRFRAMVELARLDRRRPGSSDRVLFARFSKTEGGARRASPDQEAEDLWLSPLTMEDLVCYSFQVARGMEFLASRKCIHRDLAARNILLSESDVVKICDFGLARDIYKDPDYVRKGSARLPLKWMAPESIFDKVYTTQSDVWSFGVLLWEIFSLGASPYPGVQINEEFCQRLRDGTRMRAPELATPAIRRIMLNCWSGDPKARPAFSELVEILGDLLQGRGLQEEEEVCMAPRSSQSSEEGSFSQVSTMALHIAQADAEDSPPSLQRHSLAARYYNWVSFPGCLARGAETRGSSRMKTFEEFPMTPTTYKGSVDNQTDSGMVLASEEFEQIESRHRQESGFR
T1 sequence (P35916 25-1363): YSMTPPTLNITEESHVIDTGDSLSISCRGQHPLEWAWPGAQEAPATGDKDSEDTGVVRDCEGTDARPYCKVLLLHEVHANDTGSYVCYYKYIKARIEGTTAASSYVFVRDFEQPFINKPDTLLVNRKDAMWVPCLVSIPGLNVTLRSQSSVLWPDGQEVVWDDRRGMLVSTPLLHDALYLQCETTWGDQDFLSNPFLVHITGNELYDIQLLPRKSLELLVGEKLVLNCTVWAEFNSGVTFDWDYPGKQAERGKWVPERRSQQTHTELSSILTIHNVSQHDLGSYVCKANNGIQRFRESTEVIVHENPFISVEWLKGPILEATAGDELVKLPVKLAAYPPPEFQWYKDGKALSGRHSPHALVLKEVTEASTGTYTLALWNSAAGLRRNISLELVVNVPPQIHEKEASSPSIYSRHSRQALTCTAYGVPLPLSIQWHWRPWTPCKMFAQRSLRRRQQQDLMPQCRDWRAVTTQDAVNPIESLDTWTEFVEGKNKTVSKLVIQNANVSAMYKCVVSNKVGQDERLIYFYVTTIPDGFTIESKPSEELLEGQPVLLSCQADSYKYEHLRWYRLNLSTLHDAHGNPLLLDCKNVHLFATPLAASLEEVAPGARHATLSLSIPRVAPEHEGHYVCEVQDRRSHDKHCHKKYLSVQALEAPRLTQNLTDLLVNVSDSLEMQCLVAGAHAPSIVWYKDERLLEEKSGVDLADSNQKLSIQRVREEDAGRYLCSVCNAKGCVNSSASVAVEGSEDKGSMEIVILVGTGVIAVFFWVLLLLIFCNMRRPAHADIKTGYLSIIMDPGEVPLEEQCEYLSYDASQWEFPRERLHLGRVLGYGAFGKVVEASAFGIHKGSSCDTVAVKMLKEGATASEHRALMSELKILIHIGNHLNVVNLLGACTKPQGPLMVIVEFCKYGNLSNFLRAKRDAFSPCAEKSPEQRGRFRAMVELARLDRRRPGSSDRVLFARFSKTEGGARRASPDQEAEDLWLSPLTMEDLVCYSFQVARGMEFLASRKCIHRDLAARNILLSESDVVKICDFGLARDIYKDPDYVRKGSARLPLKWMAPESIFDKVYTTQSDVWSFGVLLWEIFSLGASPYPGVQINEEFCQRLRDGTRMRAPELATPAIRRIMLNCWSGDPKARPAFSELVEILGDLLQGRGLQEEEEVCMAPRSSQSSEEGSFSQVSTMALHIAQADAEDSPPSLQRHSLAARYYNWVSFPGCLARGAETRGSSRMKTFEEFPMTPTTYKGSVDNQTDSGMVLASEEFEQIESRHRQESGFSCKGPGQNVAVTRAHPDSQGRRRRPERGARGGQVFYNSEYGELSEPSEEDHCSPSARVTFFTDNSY

Row | IC50 [1] | IC50 (P397Y-FAK) | SMILES | IC50 (VEGFR3)
1 | 70 nM | 7 nM | NC(=O)Cc1ccccc1CCc1nc(Nc2ccc(CNCCO)cc2)ncc1C(F)(F)F [Compound 19, 2-(2-(2-(2-((4-(((2-hydroxyethyl)amino)methyl)phenyl)amino)-5-(trifluoromethyl)pyrimidin-4-yl)ethyl)phenyl)acetamide] | –
2 | 44 nM | 119 nM | Cc1ccc(CC(N)=O)c(CCc2nc(Nc3ccc(C4CCNCC4)cc3)ncc2C(F)(F)F)c1 [Compound 21, 2-(4-methyl-2-(2-(2-((4-(piperidin-4-yl)phenyl)amino)-5-(trifluoromethyl)pyrimidin-4-yl)ethyl)phenyl)acetamide] | –
3 | 101 nM | 944 nM | NC(=O)Cc1c(CCc2nc(Nc3ccc(C4CCNCC4)cc3)ncc2C(F)(F)F)cccc1C(F)(F)F [Compound 22, 2-(2-(2-(2-((4-(piperidin-4-yl)phenyl)amino)-5-(trifluoromethyl)pyrimidin-4-yl)ethyl)-6-(trifluoromethyl)phenyl)acetamide] | –

Row | SMILES | IC50 [1] | IC50 (P397Y-FAK) | IC50 (VEGFR3)
4 | NC(=O)Cc1cc(F)ccc1CCc1nc(Nc2ccc(C3CCNCC3)cc2)ncc1C(F)(F)F [Compound 9, 2-(5-fluoro-2-(2-(2-((4-(piperidin-4-yl)phenyl)amino)-5-(trifluoromethyl)pyrimidin-4-yl)ethyl)phenyl)acetamide] | 68 nM | – | 379 nM
5 | NC(=O)Cc1ccccc1CCc1nc(Nc2ccc(C3CCNCC3)nc2)ncc1C(F)(F)F [Compound 13, 2-(2-(2-(2-((6-(piperidin-4-yl)pyridin-3-yl)amino)-5-(trifluoromethyl)pyrimidin-4-yl)ethyl)phenyl)acetamide] | 67 nM | – | 1030 nM
